{"source": "patent US7935687B2", "about": "“Methods for treating spinal muscular atrophy using tetracycline compounds” (Paratek Pharmaceuticals, Inc., priority 2007, dated 2011)", "key": {"[1]": {"experiment": "Brain-penetrating ability, brain:plasma ratio", "assay_type": "in vivo, Male CD1 mice", "settings": "iv; for Ratio of Brain to Plasma Levels (at T = 3 hours, %): mouse, in vivo, 5 mg/kg", "description": "Male CD1 mice were administered various tetracycline compounds (i.v. at a dose of 5 mg/kg). After 15 minutes, 1 hour and 3 hours post-dose, 3 mice were sacrificed, exsanguinated, and brains harvested and snap frozen. Blood was centrifuged and the plasma removed and frozen."}, "S. aureus (SA RN450)": {"system": "S. aureus (SA RN450)", "experiment": "Antibacterial MIC, gram positive", "assay_type": "cell-based", "settings": "CLSI methodology, 35° C., 18-24 hours"}, "SMN2 mRNA": {"system": "SMN2 mRNA", "experiment": "In vitro cell-free splicing assay for inclusion of exon 7", "assay_type": "biochemical", "settings": "HeLa cell nuclear extract, 30° C., 3 hours", "outline": "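^32P-labelled SMN2 minigene pre-mRNA (exon 6 to part of exon 8; 10 fmol) spliced 3 h at 30 °C in 30% HeLa nuclear extract with 0.5 mM ATP, 1.56 mM MgCl2, pH 7.4, plus compound or buffer. Exon 7 inclusion quantified by denaturing PAGE and phosphorimaging. Emax is maximal % inclusion and Cmax the lowest concentration (μM) reaching it, reported as binned grades.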"}, "E. coli (EC D1-209)": {"system": "E. coli (EC D1-209)", "experiment": "Antibacterial MIC, gram negative", "assay_type": "cell-based", "settings": "CLSI methodology, 35° C., 18-24 hours"}, "[2]": {"system": "3813 SMA patient-derived fibroblast cells", "experiment": "In vitro gems assay", "assay_type": "cell-based, Human", "settings": "1 mM, SMA patient line", "description": "The following example illustrates how tetracycline compound of the invention increase gems in vitro. A glass cover slide was added into each well of 6 well plates and 1×10^4 cells (3813 SMA patient-derived fibroblast cells or 3814 unaffected family member-derived fibroblast cells) in 2 mL were added. After approximately 6 hours, the medium was changed and the desired compound was added to the appropriate well at indicated concentrations. After 12 hours, the medium was changed and the desired compound was added to the appropriate well again. After 24 hours, one set of slides was fixed and the medium was changed and the desired compound was added to the appropriate well again. After 36 hours, the medium was changed and the desired compound was added to the appropriate well again. Another set of cells were fixed on the slides at 48 hours.\nImmunofluorescence staining of the cells was performed by washing the cells 2 times with PBS (phosphate buffered saline) and fixing the cells on slides in 4% paraformaldehyde for 10 minutes on ice. The cells were washed 3 times for 5 minutes with PBS, then were permeabilized on the cover slip with 0.2% TritonX, 0.5% BSA in PBS and incubated for 5 minutes on ice. […] The cells were again washed 2 times for five minutes with PBS, mounted on slides with Molecular Probes Prolong Antifade kit, dried and analyzed with Axioskop widefield fluourescence microscope."}}, "data": [{"smiles": "CN(C)C1C(O)=C(C(N)=O)C(=O)C2(O)C(O)=C3C(=O)c4c(O)ccc(-c5cccc(CCCN6CCCCC6)c5)c4CC3CC12", "note": "(centres unmarked) [BN]", "values": [{"measurement": "Ratio of Brain to Plasma Levels (at T = 3 hours, %)", "setting": "[1]", "result": 41.6, "unit": "%"}, {"measurement": "MIC Gram Positive (SA RN450)", "setting": "S. aureus (SA RN450)", "result": "*** (Good antibacterial activity (e.g., less than about 4 μg/mL))"}, {"measurement": "Cmax (lowest compound concentration at which the maximum exon 7 inclusion occurs)", "setting": "SMN2 mRNA", "result": "*** (concentrations of less than 10 μM)"}, {"measurement": "Emax (maximum percentage exon 7 inclusion observed)", "setting": "SMN2 mRNA", "result": "*** (values greater than 20%)"}, {"measurement": "MIC Gram Negative (EC D1-209)", "setting": "E. coli (EC D1-209)", "result": "** (modest antibacterial activity (between about 4 and 8 μg/mL))"}]}, {"smiles": "COCCN(C)CC(=O)c1ccc(O)c2c1CC1CC3C(N(C)C)C(O)=C(C(N)=O)C(=O)C3(O)C(O)=C1C2=O", "note": "(centres unmarked) [BO]", "values": [{"measurement": "Ratio of Brain to Plasma Levels (at T = 3 hours, %)", "setting": "[1]", "result": 50.7, "unit": "%"}, {"measurement": "MIC Gram Positive (SA RN450)", "setting": "S. aureus (SA RN450)", "result": "*** (Good antibacterial activity (e.g., less than about 4 μg/mL))"}, {"measurement": "MIC Gram Negative (EC D1-209)", "setting": "E. coli (EC D1-209)", "result": "* (weak antibacterial activity (greater than about 8 μg/mL))"}]}, {"smiles": "CN(C)CCCNC(=O)c1cccc(-c2ccc(O)c3c2CC2CC4C(N(C)C)C(O)=C(C(N)=O)C(=O)C4(O)C(O)=C2C3=O)c1", "note": "(centres unmarked) [J]", "values": [{"measurement": "MIC Gram Positive (SA RN450)", "setting": "S. aureus (SA RN450)", "result": "*** (Good antibacterial activity (e.g., less than about 4 μg/mL))"}, {"measurement": "Cmax (lowest compound concentration at which the maximum exon 7 inclusion occurs)", "setting": "SMN2 mRNA", "result": "*** (concentrations of less than 10 μM)"}, {"measurement": "Emax (maximum percentage exon 7 inclusion observed)", "setting": "SMN2 mRNA", "result": "** (values of 10-20%)"}, {"measurement": "MIC Gram Negative (EC D1-209)", "setting": "E. coli (EC D1-209)", "result": "* (weak antibacterial activity (greater than about 8 μg/mL))"}]}, {"smiles": "COCCNC(=O)c1cccc(-c2ccc(O)c3c2CC2CC4C(N(C)C)C(O)=C(C(N)=O)C(=O)C4(O)C(O)=C2C3=O)c1", "note": "(centres unmarked) [L]", "values": [{"measurement": "MIC Gram Positive (SA RN450)", "setting": "S. aureus (SA RN450)", "result": "*** (Good antibacterial activity (e.g., less than about 4 μg/mL))"}, {"measurement": "Cmax (lowest compound concentration at which the maximum exon 7 inclusion occurs)", "setting": "SMN2 mRNA", "result": "* (concentrations of greater than 40 μM)"}, {"measurement": "Emax (maximum percentage exon 7 inclusion observed)", "setting": "SMN2 mRNA", "result": "** (values of 10-20%)"}, {"measurement": "MIC Gram Negative (EC D1-209)", "setting": "E. coli (EC D1-209)", "result": "* (weak antibacterial activity (greater than about 8 μg/mL))"}]}, {"smiles": "CNCCNC(=O)c1cccc(-c2ccc(O)c3c2CC2CC4C(N(C)C)C(O)=C(C(N)=O)C(=O)C4(O)C(O)=C2C3=O)c1", "note": "(centres unmarked) [M]", "values": [{"measurement": "MIC Gram Positive (SA RN450)", "setting": "S. aureus (SA RN450)", "result": "** (modest antibacterial activity (between about 4 and 8 μg/mL))"}, {"measurement": "Cmax (lowest compound concentration at which the maximum exon 7 inclusion occurs)", "setting": "SMN2 mRNA", "result": "** (concentrations between 40 and 10 μM)"}, {"measurement": "Emax (maximum percentage exon 7 inclusion observed)", "setting": "SMN2 mRNA", "result": "*** (values greater than 20%)"}, {"measurement": "MIC Gram Negative (EC D1-209)", "setting": "E. coli (EC D1-209)", "result": "* (weak antibacterial activity (greater than about 8 μg/mL))"}]}, {"smiles": "CN(C)c1ccc(O)c2c1C[C@H]1C[C@H]3[C@H](N(C)C)C(O)=C(C(N)=O)C(=O)[C@@]3(O)C(O)=C1C2=O", "note": "[Minocycline, minocycline, reference compound]", "values": [{"measurement": "Kp at 3 h", "setting": "[1]; male, CD1, mouse, brain and plasma, i.v. 5 mg/kg, 3 hours post-dose, read-out: Ratio of Brain to Plasma Levels (at T = 3 hours, %)", "result": 1.28}]}, {"smiles": "CN(C)C1C(O)=C(C(N)=O)C(=O)C2(O)C(O)=C3C(=O)c4c(O)ccc(-c5cccc(C(=O)NCCN)c5)c4CC3CC12", "note": "(centres unmarked) [N]", "values": [{"measurement": "MIC Gram Positive (SA RN450)", "setting": "S. aureus (SA RN450)", "result": "*** (Good antibacterial activity (e.g., less than about 4 μg/mL))"}, {"measurement": "Cmax (lowest compound concentration at which the maximum exon 7 inclusion occurs)", "setting": "SMN2 mRNA", "result": "** (concentrations between 40 and 10 μM)"}, {"measurement": "Emax (maximum percentage exon 7 inclusion observed)", "setting": "SMN2 mRNA", "result": "** (values of 10-20%)"}, {"measurement": "MIC Gram Negative (EC D1-209)", "setting": "E. coli (EC D1-209)", "result": "* (weak antibacterial activity (greater than about 8 μg/mL))"}]}, {"smiles": "CCN(CC)CCNC(=O)c1cccc(-c2ccc(O)c3c2CC2CC4C(N(C)C)C(O)=C(C(N)=O)C(=O)C4(O)C(O)=C2C3=O)c1", "note": "(centres unmarked) [O]", "values": [{"measurement": "MIC Gram Positive (SA RN450)", "setting": "S. aureus (SA RN450)", "result": "** (modest antibacterial activity (between about 4 and 8 μg/mL))"}, {"measurement": "Cmax (lowest compound concentration at which the maximum exon 7 inclusion occurs)", "setting": "SMN2 mRNA", "result": "** (concentrations between 40 and 10 μM)"}, {"measurement": "Emax (maximum percentage exon 7 inclusion observed)", "setting": "SMN2 mRNA", "result": "* (percentage inclusion values of less than 10%)"}, {"measurement": "MIC Gram Negative (EC D1-209)", "setting": "E. coli (EC D1-209)", "result": "* (weak antibacterial activity (greater than about 8 μg/mL))"}]}, {"smiles": "CN(C)CCCNC(=O)c1cccc(-c2ccc(O)c3c2CC2CC4C(N(C)C)C(O)=C(C(N)=O)C(=O)C4(O)C(O)=C2C3=O)c1", "note": "(centres unmarked) [P]", "values": [{"measurement": "MIC Gram Positive (SA RN450)", "setting": "S. aureus (SA RN450)", "result": "** (modest antibacterial activity (between about 4 and 8 μg/mL))"}, {"measurement": "Cmax (lowest compound concentration at which the maximum exon 7 inclusion occurs)", "setting": "SMN2 mRNA", "result": "** (concentrations between 40 and 10 μM)"}, {"measurement": "Emax (maximum percentage exon 7 inclusion observed)", "setting": "SMN2 mRNA", "result": "** (values of 10-20%)"}, {"measurement": "MIC Gram Negative (EC D1-209)", "setting": "E. coli (EC D1-209)", "result": "* (weak antibacterial activity (greater than about 8 μg/mL))"}]}, {"smiles": "CC(=O)NCCNC(=O)c1cccc(-c2ccc(O)c3c2CC2CC4C(N(C)C)C(O)=C(C(N)=O)C(=O)C4(O)C(O)=C2C3=O)c1", "note": "(centres unmarked) [S]", "values": [{"measurement": "MIC Gram Positive (SA RN450)", "setting": "S. aureus (SA RN450)", "result": "*** (Good antibacterial activity (e.g., less than about 4 μg/mL))"}, {"measurement": "Cmax (lowest compound concentration at which the maximum exon 7 inclusion occurs)", "setting": "SMN2 mRNA", "result": "* (concentrations of greater than 40 μM)"}, {"measurement": "Emax (maximum percentage exon 7 inclusion observed)", "setting": "SMN2 mRNA", "result": "** (values of 10-20%)"}, {"measurement": "MIC Gram Negative (EC D1-209)", "setting": "E. coli (EC D1-209)", "result": "* (weak antibacterial activity (greater than about 8 μg/mL))"}]}, {"smiles": "CC(C)N(CCNC(=O)c1cccc(-c2ccc(O)c3c2CC2CC4C(N(C)C)C(O)=C(C(N)=O)C(=O)C4(O)C(O)=C2C3=O)c1)C(C)C", "note": "(centres unmarked) [T]", "values": [{"measurement": "MIC Gram Positive (SA RN450)", "setting": "S. aureus (SA RN450)", "result": "*** (Good antibacterial activity (e.g., less than about 4 μg/mL))"}, {"measurement": "Cmax (lowest compound concentration at which the maximum exon 7 inclusion occurs)", "setting": "SMN2 mRNA", "result": "** (concentrations between 40 and 10 μM)"}, {"measurement": "Emax (maximum percentage exon 7 inclusion observed)", "setting": "SMN2 mRNA", "result": "** (values of 10-20%)"}, {"measurement": "MIC Gram Negative (EC D1-209)", "setting": "E. coli (EC D1-209)", "result": "* (weak antibacterial activity (greater than about 8 μg/mL))"}]}, {"smiles": "CN(C)C1C(O)=C(C(N)=O)C(=O)C2(O)C(O)=C3C(=O)c4c(O)ccc(-c5cccc(C(=O)NCCN6CCCCC6)c5)c4CC3CC12", "note": "(centres unmarked) [U]", "values": [{"measurement": "MIC Gram Positive (SA RN450)", "setting": "S. aureus (SA RN450)", "result": "*** (Good antibacterial activity (e.g., less than about 4 μg/mL))"}, {"measurement": "Cmax (lowest compound concentration at which the maximum exon 7 inclusion occurs)", "setting": "SMN2 mRNA", "result": "** (concentrations between 40 and 10 μM)"}, {"measurement": "Emax (maximum percentage exon 7 inclusion observed)", "setting": "SMN2 mRNA", "result": "** (values of 10-20%)"}, {"measurement": "MIC Gram Negative (EC D1-209)", "setting": "E. coli (EC D1-209)", "result": "** (modest antibacterial activity (between about 4 and 8 μg/mL))"}]}, {"smiles": "CN(C)C1C(O)=C(C(N)=O)C(=O)C2(O)C(O)=C3C(=O)c4c(O)ccc(-c5cccc(C(=O)NCc6ccco6)c5)c4CC3CC12", "note": "(centres unmarked) [Y]", "values": [{"measurement": "MIC Gram Positive (SA RN450)", "setting": "S. aureus (SA RN450)", "result": "*** (Good antibacterial activity (e.g., less than about 4 μg/mL))"}, {"measurement": "Cmax (lowest compound concentration at which the maximum exon 7 inclusion occurs)", "setting": "SMN2 mRNA", "result": "* (concentrations of greater than 40 μM)"}, {"measurement": "Emax (maximum percentage exon 7 inclusion observed)", "setting": "SMN2 mRNA", "result": "** (values of 10-20%)"}, {"measurement": "MIC Gram Negative (EC D1-209)", "setting": "E. coli (EC D1-209)", "result": "* (weak antibacterial activity (greater than about 8 μg/mL))"}]}, {"smiles": "CCCC(CCC)C(=O)O", "note": "[valproic acid]", "values": [{"measurement": "increase in the number of gems/100 cells", "setting": "[2]", "result": 1.7, "unit": "fold"}]}]}
